Data published in ChEMBL document CHEMBL3885861, “Open TG-GATES”.
Where a name gives a salt, the structure may show the parent alone.

Species on record: Rattus norvegicus
Assay: Open TG-GATES - Regimen: Single
Format: toxicity, organism-based, Sprague-Dawley
Set-up: regimen Single, gender Male, age 6 weeks
Conditions: in vivo, ip, 0 mg/kg, route intraperitoneal injection, dose level Control; for APTT / Bas / Eos / Fbg / Hb / Ht / Lym / MCH / MCHC / MCV / Mono / Neu / PT / Plat / RBC / Ret / WBC: tissue Blood; for KIDNEY_L / KIDNEY_R / KIDNEY_TOTAL: tissue Kidney; for LIVER: tissue Liver; for A/G / ALP / ALT / AST / BUN / CRE / Ca / Cl / DBIL / GLC / IP / K / LDH / Na / PL / RALB / TBIL / TC / TG / TP / gamma-GTP: tissue Plasma

## CCOC(=O)/C=C\C(=O)OCC [DIETHYL MALEATE]
3 h
  TERMINAL_BW: 198.9 g
  APTT: 16.4 s
  Bas: 0%
  Eos: 0.6%
  Fbg: 209.8 mg/dL
  Hb: 13 g/dL
  Ht: 39.1%
  Lym: 69.8%
  MCH: 21.2 pg
  MCHC: 33.4%
  MCV: 63.6 fL
  Mono: 7%
  Neu: 22.8%
  PT: 12.3 s
  Plat: 114.7 x10_4/uL
  RBC: 615.6 x10_4/ul
  Ret: 10.1%
  WBC: 113.4 x10_2/uL
  KIDNEY_L: 0.9 g
  KIDNEY_R: 0.9 g
  KIDNEY_TOTAL: 1.8 g
  LIVER: 9.2 g
  A/G: 2
  ALP: 732.6 IU/L
  ALT: 39.8 IU/L
  AST: 78.2 IU/L
  BUN: 14.6 mg/dL
  CRE: 0.5 mg/dL
  Ca: 11.2 mg/dL
  Cl: 106 meq/L
  DBIL: 0.028 mg/dL
  GLC: 187 mg/dL
  IP: 10.1 mg/dL
  K: 5.2 meq/L
  LDH: 80.6 IU/L
  Na: 140.4 meq/L
  PL: 137.4 mg/dL
  RALB: 3.6 g/dL
  TBIL: 0.3 mg/dL
  TC: 79.6 mg/dL
  TG: 38 mg/dL
  TP: 5.4 g/dL
  gamma-GTP: 1 IU/L
6 h
  TERMINAL_BW: 197.4 g
  APTT: 16.4 s
  Bas: 0%
  Eos: 1%
  Fbg: 219.8 mg/dL
  Hb: 13.4 g/dL
  Ht: 40.3%
  Lym: 67%
  MCH: 21.6 pg
  MCHC: 33.3%
  MCV: 64.8 fL
  Mono: 7.4%
  Neu: 24.6%
  PT: 12 s
  Plat: 118.6 x10_4/uL
  RBC: 621.6 x10_4/ul
  Ret: 8.9%
  WBC: 102 x10_2/uL
  KIDNEY_L: 0.8 g
  KIDNEY_R: 0.9 g
  KIDNEY_TOTAL: 1.7 g
  LIVER: 8.3 g
  A/G: 1.8
  ALP: 838.6 IU/L
  ALT: 35.2 IU/L
  AST: 67 IU/L
  BUN: 14 mg/dL
  CRE: 0.4 mg/dL
  Ca: 10.6 mg/dL
  Cl: 106.6 meq/L
  DBIL: 0.018 mg/dL
  GLC: 191 mg/dL
  IP: 10.4 mg/dL
  K: 5.2 meq/L
  LDH: 70.4 IU/L
  Na: 139.8 meq/L
  PL: 142.6 mg/dL
  RALB: 3.4 g/dL
  TBIL: 0.4 mg/dL
  TC: 84.2 mg/dL
  TG: 51.2 mg/dL
  TP: 5.3 g/dL
  gamma-GTP: 1.6 IU/L
9 h
  TERMINAL_BW: 194.7 g
  APTT: 16.6 s
  Bas: 0%
  Eos: 0.6%
  Fbg: 228.4 mg/dL
  Hb: 12.7 g/dL
  Ht: 38%
  Lym: 73.8%
  MCH: 21.7 pg
  MCHC: 33.3%
  MCV: 65 fL
  Mono: 3%
  Neu: 22.6%
  PT: 11.9 s
  Plat: 117 x10_4/uL
  RBC: 585.2 x10_4/ul
  Ret: 9.9%
  WBC: 101.3 x10_2/uL
  KIDNEY_L: 0.9 g
  KIDNEY_R: 0.9 g
  KIDNEY_TOTAL: 1.8 g
  LIVER: 7.9 g
  A/G: 2.2
  ALP: 605 IU/L
  ALT: 29.6 IU/L
  AST: 66.4 IU/L
  BUN: 11.8 mg/dL
  CRE: 0.5 mg/dL
  Ca: 10.6 mg/dL
  Cl: 106.8 meq/L
  DBIL: 0.036 mg/dL
  GLC: 191.8 mg/dL
  IP: 10.3 mg/dL
  K: 5 meq/L
  LDH: 59 IU/L
  Na: 138 meq/L
  PL: 133.2 mg/dL
  RALB: 3.6 g/dL
  TBIL: 0.4 mg/dL
  TC: 76.8 mg/dL
  TG: 40.4 mg/dL
  TP: 5.3 g/dL
  gamma-GTP: 2.4 IU/L
24 h
  TERMINAL_BW: 212.9 g
  APTT: 16 s
  Bas: 0%
  Eos: 0.4%
  Fbg: 226.8 mg/dL
  Hb: 12.9 g/dL
  Ht: 38.4%
  Lym: 79.8%
  MCH: 21.8 pg
  MCHC: 33.7%
  MCV: 65 fL
  Mono: 4.6%
  Neu: 15%
  PT: 11.7 s
  Plat: 121.2 x10_4/uL
  RBC: 590.8 x10_4/ul
  Ret: 9.5%
  WBC: 106.7 x10_2/uL
  KIDNEY_L: 0.9 g
  KIDNEY_R: 0.9 g
  KIDNEY_TOTAL: 1.8 g
  LIVER: 10.1 g
  A/G: 2.2
  ALP: 864.6 IU/L
  ALT: 34.8 IU/L
  AST: 66.8 IU/L
  BUN: 20.4 mg/dL
  CRE: 0.5 mg/dL
  Ca: 10.8 mg/dL
  Cl: 106 meq/L
  DBIL: 0.018 mg/dL
  GLC: 202.2 mg/dL
  IP: 8.6 mg/dL
  K: 4.9 meq/L
  LDH: 93.4 IU/L
  Na: 140 meq/L
  PL: 143.2 mg/dL
  RALB: 3.8 g/dL
  TBIL: 0.3 mg/dL
  TC: 77.2 mg/dL
  TG: 93.6 mg/dL
  TP: 5.5 g/dL
  gamma-GTP: 2.2 IU/L
